Values of other authors in patent US20050263150A1, “Systems and methods for the administration of drugs and medications” (priority 2004, published 2005).
Where two headings read alike, the source gives them in different places.

How the values were obtained:
[1] = for duration of action: in vivo
[2] = ketamine combined with benzodiazepines and barbiturates, extends ketamine's half-life

For `[N-]=[N+]=O` [Nitrous oxide], the duration of action [1] is listed as 3 to 5 min and the onset of action ([1]; sedative/analgesic) is listed as 3 to 5 min.
In the case of `CC(C)c1cccc(C(C)C)c1O` [Propofol], the solubility in water is listed as “almost completely insoluble in water”.
For `CNC1(c2ccccc2Cl)CCCCC1=O` (stereo not drawn) [Ketamine, 2-(2-chlorophenyl)-2-(methylamino)-cyclohexanone], the “prolonging clinical recovery time” value [2] is given as “about 30%”.
For `C=CCC1(C(C)C#CCC)C(=O)N=C(O)N(C)C1=O` (stereo not drawn) [Methohexital], the duration of action [1] is given as “less than 10 minutes” and the onset of action ([1]; procedural sedation) is given as “less than 1 minute”.
